Results from PubChem BioAssay (NCI).
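How tested: cells in 96-well plates exposed to compound for 48 hours at five concentrations. Here, GI50 denotes the concentration required for 50% inhibition of growth. At the TGI there is no net growth.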

Columns and labels:
Test in all cases: NCI anticancer screen, dose series, 48 h
[1] = test system: HCC-2998 colon
[2] = test system: HCT-116 colon
[3] = test system: K-562 leukemia
[4] = test system: RPMI-8226 leukemia
[5] = test system: MOLT-4 leukemia
[6] = test system: UACC-62 melanoma
[7] = test system: 786-0 renal
[8] = test system: OVCAR-5 ovarian
[9] = test system: U251 CNS
[10] = test system: SNB-75 CNS

Row | SMILES | GI50 [1] [µM] | TGI [1] [µM] | GI50 [2] [nM] | TGI [2] [µM] | GI50 [3] [nM] | TGI [3] [µM] | GI50 [4] [nM] | TGI [4] [µM] | GI50 [5] [nM] | TGI [5] [µM] | GI50 [6] [nM] | TGI [6] [µM] | GI50 [7] [nM] | TGI [7] [µM] | GI50 [8] [µM] | TGI [8] [µM] | GI50 [9] [µM] | TGI [9] [µM] | GI50 [10] [µM] | TGI [10] [µM]
1 | FC(F)(F)c1ccc(-c2nn3ncccc3c2-c2ccnc(Nc3ccc4c(c3)OCCO4)n2)cc1 | 6.56 | > 25 | 8150 | > 25 | 8790 | > 25 | 5970 | > 20.4 | 6110 | > 23.3 | 10000 | > 25 | 17300 | > 25 | 7.11 | > 23.2 | 14.1 | > 25 | > 8.49 | > 25
2 | Cc1ccc(S(=O)(=O)c2nc(-c3ccccc3)oc2S(C)(=O)=O)cc1 | 17.9 | 32.2 | 1780 | 3.25 | 1590 | 4.3 | 2330 | 5.88 | 2270 | 5.87 | 1890 | 3.98 | 1660 | 3.19 | 2.12 | 5.28 | 5.88 | 18.3 | 6.39 | 18
3 | CCOC(=O)C1Cc2ccc3c4c(ccc(c24)C1)CC(C(=O)OCC)C3 | – | > 100 | – | > 100 | – | > 100 | – | > 100 | – | > 100 | – | > 100 | – | > 100 | – | > 100 | – | > 100 | – | > 100
4 | CC1(C)COC2C(N(Cc3ccccc3)Cc3ccccc3)C(=O)N21 (configuration not stated) | – | > 100 | – | > 100 | – | 82.9 | – | 91.3 | – | > 100 | – | 61 | – | > 100 | – | > 100 | – | 70.8 | – | 41.2
5 | CN(C)N1C(=O)SCC(c2ccccc2)(c2ccccc2)C1=O | – | > 100 | – | > 100 | – | > 100 | – | > 100 | – | > 100 | – | > 100 | – | > 100 | – | > 100 | – | > 100 | – | > 100
6 | CC(=O)c1cccc(NC(=O)C(=O)c2c(O)c3ccccc3oc2=O)c1 | – | > 100 | – | > 100 | – | > 100 | – | > 100 | – | > 100 | – | > 100 | – | > 100 | – | > 100 | – | > 100 | – | > 100
7 | COc1ccc(C2=NC(=O)NC2c2ccc(OC)cc2)cc1 (configuration not stated) | 13 | 33.6 | 5900 | 27.7 | 2800 | 20.8 | 7580 | 50.6 | 1200 | 96.7 | 4150 | 32.7 | 26900 | > 100 | 25.9 | > 100 | 7.85 | > 100 | 5.39 | 65
8 | CN(Cc1ccc(F)cc1)c1ccc(CO)c(Cl)c1 | 14.9 | 57 | 412 | 11.9 | 7990 | > 100 | 12400 | 60.6 | 21800 | 69.3 | 323 | 3.32 | 10500 | 30.4 | 0.426 | 2.37 | 4.63 | 68.5 | 18.4 | 89.5
9 | CCOC(=O)c1ccc(NC(=O)NC2=NCCS2)cc1 | 3.91 | > 76.7 | 50900 | > 100 | 10500 | > 100 | 1930 | > 100 | 1170 | > 100 | 7960 | > 100 | 693 | > 100 | 99.1 | > 100 | 0.899 | > 100 | 0.252 | > 100
10 | Cn1c(=O)n(C)c2cc(CNCCNc3ccnc4cc(Cl)ccc34)ccc21 | 20.2 | 52.9 | 17900 | 54.5 | 6990 | 39.4 | 20900 | 65.6 | 21100 | > 100 | 17700 | 35.6 | 23100 | 71.8 | 20.3 | 65.4 | 22.1 | 72.1 | 13.1 | 35.6
11 | CC1=Nc2ccccc2SC(c2c(Cl)cccc2Cl)C1 (configuration not stated) | – | 3.18 | – | 0.616 | – | 1.71 | – | 3.09 | – | 12.4 | – | 2.52 | – | 1.49 | – | 4.08 | – | 1.14 | – | 5.67
12 | CCCC(=O)N[C@H]1CCc2cc(OC)c(OC)c(OC)c2-c2ccc(SC)c(=O)cc21 | – | > 4.64 | – | 0.176 | – | > 100 | – | > 100 | – | > 66.2 | – | > 100 | – | 63.1 | – | > 100 | – | 3.74 | – | 15.6
13 | Clc1ccccc1CN1COc2c(ccc3cccnc23)C1 | – | 19.6 | – | 9.66 | – | 4.51 | – | 7.15 | – | 6.77 | – | 8.56 | – | 14.8 | – | 22.8 | – | 19.1 | – | 21.1
14 | CCCCCCCCCc1ccc(OCCOCCOCCOCCOCCOCCOCCOCCOCCO)cc1 | 0.75 | 1.85 | 374 | 1.59 | 332 | 7.27 | 36.8 | 1.76 | 704 | 2.15 | 379 | 1.25 | 1020 | 4.12 | 1.1 | 3.54 | 0.458 | 1.25 | 0.881 | 2.48
15 | CC(=O)c1ccc2c(c1)N(CCCN1CCN(CCO)CC1)c1ccccc1S2 | 1.71 | 3.2 | 1810 | 3.49 | 2520 | > 23 | 2400 | 8.75 | 2990 | 8.86 | 1880 | 3.83 | 1770 | 3.64 | 2.29 | 9.78 | 1.94 | 4.06 | 1.53 | 3.51
16 | COc1cc(OCc2cccc(-c3ccccc3)c2C)cc(OC)c1CN1CCCCC1C(=O)NCCOCCOCCN (configuration not stated) | 2.39 | 5.85 | 2040 | 4.64 | 1860 | 4.4 | 2040 | 5 | 2080 | 5.79 | 1790 | 3.41 | 1830 | 3.53 | 3.73 | 14.9 | 2.1 | 4.44 | 2.22 | 17.7
17 | Nc1c(C(=O)c2cccc(C#CCN3CCCCC3)c2)cnn1-c1ccc(F)cc1 | > 25 | > 25 | > 17700 | > 25 | 13100 | > 25 | > 17000 | > 25 | 21200 | > 25 | > 25000 | > 25 | > 25000 | > 25 | > 25 | > 25 | > 25 | > 25 | > 25 | > 25
18 | CN(C)CCCOc1cccc(NC2=C(Cl)C(=O)C(Nc3cccc(OCCCN(C)C)c3)=C(Cl)C2=O)c1 | 1.34 | 2.81 | 286 | 0.804 | 307 | 1.42 | 1250 | 4.54 | 515 | 1.59 | 1500 | 2.95 | 763 | 2.09 | 1.83 | 3.43 | 1.57 | 2.97 | 1.68 | 3.6
19 | Cc1cc(CCl)c(C)cc1CCl | 1.54 | 3.51 | 1480 | 6.58 | 1060 | > 33.2 | 1630 | 6.9 | 573 | 8.39 | 1930 | 7.59 | 2190 | – | 2.94 | 8.62 | 1.47 | 4.27 | 1.38 | 4.15
20 | CC1CC2(S(=O)(=O)c3ccccc3)ON1CC2S(=O)(=O)c1ccccc1 (configuration not stated) | – | > 100 | – | > 100 | – | > 100 | – | > 100 | – | > 100 | – | > 100 | – | > 100 | – | > 100 | – | > 100 | – | > 100
21 | CC(C)(C)[Si](C)(C)OC1[C@@H](CNC(N)=O)O[C@@H](n2cnc3c(NC(=O)Nc4ccccc4)ncnc32)[C@H]1O[Si](C)(C)C(C)(C)C (some centres not stated) | 1.6 | 6.18 | 780 | 1.45 | 1060 | 2.13 | 1120 | 2.63 | 1060 | 2.24 | 6190 | 12.6 | 2220 | 8.17 | 6.65 | 13.5 | 1.89 | 7.93 | 3.73 | 10.9
22 | O=c1c2c(-c3ccccc3)c3ccccc3nc2cnn1-c1ccccc1 | – | > 100 | – | > 100 | – | > 100 | – | > 100 | – | > 100 | – | > 100 | – | > 100 | – | > 100 | – | > 100 | – | > 100
23 | COc1cc([C@@H]2c3cc4c(cc3[C@H](OC(C)=O)[C@H]3COC(=O)[C@@H]23)OCO4)cc(OC)c1OC | 0.285 | – | 290 | 2.63 | 253 | > 100 | 445 | > 100 | 438 | > 100 | 405 | > 100 | 379 | > 100 | 0.523 | > 100 | 0.377 | > 100 | – | > 100
24 | COc1ccc2c(c1)CN([C@@H](C)[C@H]1CC[C@H]3[C@@H]4CC[C@H]5C[C@@H](O)CC[C@]5(C)[C@H]4CC[C@]13C)CO2 | – | 3.01 | – | 7.22 | – | 2.37 | – | 1.97 | – | 2.98 | – | 3.88 | – | 2.7 | – | 13.5 | – | 3.35 | – | 4.94
25 | C=C1C(=O)O[C@H]2[C@H]1CC/C(COC(=O)N[C@H]1C[C@H](O[C@H]3C[C@](O)(C(=O)CO)Cc4c(O)c5c(c(O)c43)C(=O)c3c(OC)cccc3C5=O)O[C@@H](C)[C@H]1O)=C\CC[C@@]1(C)O[C@@H]21 | 11.8 | 28.7 | 1720 | 5.58 | 1580 | 11.4 | 1330 | 3.97 | 1030 | 2.83 | 1690 | 7.02 | 5700 | 16.5 | 6.91 | 18 | 4.87 | 11.2 | 6.97 | 24.1
26 | CC(NC(=O)Cc1ccc(C(F)(F)P(=O)(OCc2ccc([N+](=O)[O-])o2)N(C)CCCCCl)cc1)c1ccc(OCC2CCCCC2)c(C(N)=O)c1 (configuration not stated) | 3.25 | 9.11 | 1930 | 4.11 | 4500 | 17.9 | 1140 | 3.86 | 2190 | 7.06 | 4970 | 10.2 | 1770 | 3.97 | 15.6 | 33.1 | 3.33 | 10.9 | 4.7 | 9.97
27 | CCN1[C@@H](C(=O)NC23CCC(C(=O)O)(CC2)CC3)[C@H](c2cccc(Cl)c2F)[C@]2(C(=O)Nc3cc(Cl)ccc32)C12CCCCC2 | 2.39 | 6.89 | 104 | 3.11 | 2980 | > 100 | 2330 | 6.61 | 164 | > 22.9 | 37.2 | 2.24 | 2940 | 12.1 | 3.74 | 17.8 | 3.29 | 15.5 | 1.91 | 14.8
28 | CC(=O)OC(C(=O)[O][Sn]([CH3])([CH3])[CH3])c1ccccc1 (configuration not stated) | > 100 | > 100 | > 100000 | > 100 | > 100000 | > 100 | > 100000 | > 100 | > 100000 | > 100 | > 100000 | > 100 | > 100000 | > 100 | > 100 | > 100 | > 100 | > 100 | > 100 | > 100
